{"source": "patent US8735398B2", "about": "(Bristol-Myers Squibb Company, priority 2009, dated 2014)", "system": "HCV 1b genotype", "experiment": "HCV replicon assay (HCV-neo replicon cells, wild-type)", "format": "cell-based, Hepatitis C virus", "details": "HCV 1b genotype replicon", "method_in_brief": "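HCV-neo replicon cells (wild-type) and replicon cells carrying NS5A resistance substitutions were treated with compounds; assay per O'Boyle et al. 2005, with luciferase-reporter read-out variants also used.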", "key": {"[1]": {"details": "Hepatitis C virus, class symbol, read-out: EC50 Range against HCV 1b"}, "[2]": {"details": "Hepatitis C virus, read-out: EC50 1b"}, "[3]": {"details": "Hepatitis C virus, class symbols, read-out: EC50 Range against HCV 1b"}}, "note": "pEC50: −log10 of the molar value. Where two headings read alike, the source gives them in different places."}
{"compound": "CN(C)[C@@H](C(=O)N1CCC[C@H]1C(=O)N1CCC[C@H]1C(=O)Nc1ccc(-c2cnc(-c3ccc(NC(=O)[C@@H]4CCCN4C(=O)[C@@H]4CCCN4C(=O)[C@@H](c4ccccc4)N(C)C)cc3)o2)cc1)c1ccccc1", "note": "[Example D-38, (2S,2′S)-N,N′-(1,3-oxazole-2,5-diyldi-4,1-phenylene)bis(1-(((2S)-1-((2R)-2-(dimethylamino)-2-phenylacetyl)-2-pyrrolidinyl)carbonyl)-2-pyrrolidinecarboxamide)]", "values": [{"measurement": "pEC50", "setting": "[1]", "result": "6.00 to 7.00"}, {"measurement": "pEC50", "setting": "[2]", "result": 6.96}]}
{"compound": "CC(=O)N[C@@H](C(=O)N1CCCC1C(=O)Nc1ccc(-c2cc(-c3ccc(NC(=O)C4CCCN4C(=O)[C@H](NC(C)=O)c4ccccc4)cc3)[nH]n2)cc1)c1ccccc1", "note": "(stereo partly drawn) [OL-42, N,N′-(1H-pyrazole-3,5-diyldi-4,1-phenylene)bis(1-((2R)-2-acetamido-2-phenylacetyl)-2-pyrrolidinecarboxamide)]", "values": [{"measurement": "pEC50", "setting": "[1]", "result": "> 8.34"}]}
{"compound": "O=C(Nc1ccc(-c2nnc(-c3ccc(NC(=O)[C@@H]4CCCN4C(=O)Cc4ccccc4)cc3)o2)cc1)[C@@H]1CCCN1C(=O)Cc1ccccc1", "note": "[MS-9, (2S,2′S)-N,N′-(4,4′-(1,3,4-oxadiazole-2,5-diyl)bis(4,1-phenylene))bis(1-(2-phenylacetyl)pyrrolidine-2-carboxamide)]", "values": [{"measurement": "pEC50", "setting": "[1]", "result": "6.00 to 7.00"}, {"measurement": "pEC50", "setting": "[2]", "result": 6.82}]}
{"compound": "O=C(Nc1ccc(-c2nncn2-c2ccc(NC(=O)[C@@H]3CCCN3C(=O)OCc3ccccc3)cc2)cc1)[C@@H]1CCCN1C(=O)OCc1ccccc1", "note": "[OL-14, (2S,2′S)-2,2′-[4H-1,2,4-triazole-3,4-diylbis(4,1-phenyleneiminocarbonyl)]bis-1-pyrrolidinecarboxylic acid, bis(phenylmethyl) ester]", "values": [{"measurement": "pEC50", "setting": "[1]", "result": "5.00 to 6.00"}]}
{"compound": "O=C(Nc1ccc(-c2nnc(-c3ccc(NC(=O)[C@@H]4CCCN4C(=O)C4CC4)cc3)o2)cc1)[C@@H]1CCCN1C(=O)C1CC1", "note": "[Example D-58, (2S,2′S)-N,N′-(1,3,4-oxadiazole-2,5-diyldi-4,1-phenylene)bis[1-(cyclopropylcarbonyl)-2-pyrrolidinecarboxamide]]", "values": [{"measurement": "pEC50", "setting": "[1]", "result": "5.00 to 6.00"}, {"measurement": "pEC50", "setting": "[2]", "result": 5.66}]}
{"compound": "O=C(Nc1ccc(-c2nnc(-c3ccc(NC(=O)[C@@H]4CCCN4C(=O)Cc4cccs4)cc3)o2)cc1)[C@@H]1CCCN1C(=O)Cc1cccs1", "note": "[Example D-61, (2S,2′S)-N,N′-(4,4′-(1,3,4-oxadiazole-2,5-diyl)bis(4,1-phenylene))bis(1-(2-(thiophen-2-yl)acetyl)pyrrolidine-2-carboxamide)]", "values": [{"measurement": "pEC50", "setting": "[1]", "result": "6.00 to 7.00"}, {"measurement": "pEC50", "setting": "[2]", "result": 6.49}]}
{"compound": "CC(=O)O[C@H](C(=O)N1CCC[C@H]1C(=O)Nc1ccc(-c2ccc(-c3ccc(NC(=O)[C@@H]4CCCN4C(=O)[C@@H](OC(C)=O)c4ccccc4)cc3)o2)cc1)c1ccccc1", "values": [{"measurement": "pEC50", "setting": "[1]", "result": "6.00 to 7.00"}]}
{"compound": "O=C(Nc1ccc(-c2cc(-c3ccc(NC(=O)[C@@H]4CCCN4C(=O)c4nc(Cl)cc5ccccc45)cc3)[nH]n2)cc1)[C@@H]1CCCN1C(=O)c1nc(Cl)cc2ccccc12", "note": "[OL-40, (2S,2′S)-N,N′-(1H-pyrazole-3,5-diyldi-4,1-phenylene)bis(1-((3-chloro-1-isoquinolinyl)carbonyl)-2-pyrrolidinecarboxamide)]", "values": [{"measurement": "pEC50", "setting": "[1]", "result": "7.00 to 8.34"}]}
{"compound": "O=C(Nc1ccc(-c2cnc(-c3ccc(NC(=O)[C@@H]4CCCN4C(=O)C4CCCCC4)cc3)o2)cc1)[C@@H]1CCCN1C(=O)C1CCCCC1", "note": "[XY-15, (2S,2′S)-N,N′-(1,3-oxazole-2,5-diyldi-4,1-phenylene)bis(1-(cyclohexylcarbonyl)-2-pyrrolidinecarboxamide)]", "values": [{"measurement": "pEC50", "setting": "[3]", "result": "6.00 to 7.00"}]}
{"compound": "O=C(Nc1ccc(-c2ccc(-c3ccc(NC(=O)[C@@H]4CCCN4C(=O)OCc4ccccc4)cc3)s2)cc1)[C@@H]1CCCN1C(=O)OCc1ccccc1", "note": "[OL-23, (2S,2′S)-2,2′-[2,5-thienediylbis(4,1-phenyleneiminocarbonyl)]bis-1-pyrrolidinecarboxylic acid, bis(phenylmethyl) ester]", "values": [{"measurement": "pEC50", "setting": "[1]", "result": "7.00 to 8.34"}]}
{"compound": "CC(=O)N1CCC[C@H]1C(=O)Nc1ccc(-c2nc(-c3ccc(NC(=O)[C@@H]4C=CCN4C(=O)[C@H]4CCCO4)cc3)cs2)cc1", "note": "[Example D-51, (2S)-N-[4-[2-[4-[[[(2S)-1-acetyl-2-pyrrolidinyl]carbonyl]amino]phenyl]-4-thiazolyl]phenyl]-2,5-dihydro-1-[[(2R)-tetrahydro-2-furanyl]carbonyl]-1H-pyrrole-2-carboxamide]", "values": [{"measurement": "pEC50", "setting": "[1]", "result": "5.00 to 6.00"}, {"measurement": "pEC50", "setting": "[2]", "result": 5.46}]}
{"compound": "O=C(Nc1ccc(-c2cnc(-c3ccc(NC(=O)[C@@H]4CCCN4C(=O)[C@@H]4CCCN4)cc3)o2)cc1)[C@@H]1CCCN1C(=O)[C@@H]1CCCN1", "note": "[Example D-34, (2S,2′S)-N,N′-(1,3-oxazole-2,5-diyldi-4,1-phenylene)bis(1-((2S)-2-pyrrolidinylcarbonyl)-2-pyrrolidinecarboxamide)]", "values": [{"measurement": "pEC50", "setting": "[1]", "result": "5.00 to 6.00"}]}
{"compound": "CC(=O)N1CCC[C@H]1C(=O)Nc1ccc(-c2nc(C)sc2-c2ccc(NC(=O)[C@@H]3CCCN3C(C)=O)cc2)cc1", "note": "[Example D-43, (2S,2′S)-N,N′-((2-methyl-1,3-thiazole-4,5-diyl)di-4,1-phenylene)bis(1-acetyl-2-pyrrolidinecarboxamide)]", "values": [{"measurement": "pEC50", "setting": "[1]", "result": "6.00 to 7.00"}]}
{"compound": "O=C(Nc1ccc(-c2cc(-c3ccc(NC(=O)[C@@H]4CCCN4C(=O)[C@H](O)c4ccccc4)cc3)[nH]n2)cc1)[C@@H]1CCCN1C(=O)[C@H](O)c1ccccc1", "note": "[JG-32, (2S,2′S)-N,N′-(1H-pyrazole-3,5-diyldi-4,1-phenylene)bis(1-((2R)-2-hydroxy-2-phenylacetyl)-2-pyrrolidinecarboxamide)]", "values": [{"measurement": "pEC50", "setting": "[1]", "result": "> 8.34"}]}
{"compound": "Cc1cc(C(=O)N2CCC[C@H]2C(=O)Nc2ccc(-c3cnc(-c4ccc(NC(=O)[C@@H]5CCCN5C(=O)c5cc(C)oc5C)cc4)o3)cc2)c(C)o1", "note": "[XY-34, (2S,2′S)-N,N′-(1,3-oxazole-2,5-diyldi-4,1-phenylene)bis(1-(2,5-dimethyl-3-furoyl)-2-pyrrolidinecarboxamide)]", "values": [{"measurement": "pEC50", "setting": "[3]", "result": "6.00 to 7.00"}]}
{"compound": "O=C(Nc1ccc(-c2nnc(-c3ccc(NC(=O)[C@@H]4CCCN4C(=O)c4ccco4)cc3)o2)cc1)[C@@H]1CCCN1C(=O)c1ccco1", "note": "[RK-13, (2S,2′S)-N,N′-(1,3,4-oxadiazole-2,5-diyldi-4,1-phenylene)bis(1-(2-furoyl)-2-pyrrolidinecarboxamide)]", "values": [{"measurement": "pEC50", "setting": "[1]", "result": "6.00 to 7.00"}]}
{"compound": "CC(C)(C)O[C@@H]1C[C@@H](C(=O)Nc2ccc(-c3cnc(-c4ccc(NC(=O)[C@@H]5C[C@@H](OC(C)(C)C)CN5C(=O)C5CC5)cc4)o3)cc2)N(C(=O)C2CC2)C1", "note": "[XY-74, (2S,4R,2′S,4′R)-N,N′-(1,3-oxazole-2,5-diyldi-4,1-phenylene)bis(4-tert-butoxy-1-(cyclopropylcarbonyl)-2-pyrrolidinecarboxamide)]", "values": [{"measurement": "pEC50", "setting": "[3]", "result": "6.00 to 7.00"}]}
{"compound": "Cn1cccc1C(=O)N1C[C@H](OC(C)(C)C)C[C@H]1C(=O)Nc1ccc(-c2cnc(-c3ccc(NC(=O)[C@@H]4C[C@@H](OC(C)(C)C)CN4C(=O)c4cccn4C)cc3)o2)cc1", "note": "[XY-71, (2S,4R,2′S,4′R)-N,N′-(1,3-oxazole-2,5-diyldi-4,1-phenylene)bis(4-tert-butoxy-1-((1-methyl-1H-pyrrol-2-yl)carbonyl)-2-pyrrolidinecarboxamide)]", "values": [{"measurement": "pEC50", "setting": "[3]", "result": "5.00 to 6.00"}]}
{"compound": "CC(=O)O[C@@H](C(=O)N1CCC[C@H]1C(=O)Nc1ccc(-c2ccc(-c3ccc(NC(=O)[C@@H]4CCCN4C(=O)[C@H](OC(C)=O)c4ccccc4)cc3)o2)cc1)c1ccccc1", "values": [{"measurement": "pEC50", "setting": "[1]", "result": "> 8.34"}]}
{"compound": "O=C(Nc1ccc(-c2cnc(-c3ccc(NC(=O)[C@@H]4CCCN4C(=O)C(O)c4cccs4)cc3)o2)cc1)[C@@H]1CCCN1C(=O)C(O)c1cccs1", "note": "(stereo partly drawn) [JR-6, (2S,2′S)-N,N′-(2,5-oxazolediyldi-4,1-phenylene)bis[1-(hydroxy-2-thienylacetyl)-2-pyrrolidinecarboxamide]]", "values": [{"measurement": "pEC50", "setting": "[3]", "result": "> 8.34"}, {"measurement": "pEC50", "setting": "[2]", "result": "> 8.30"}]}
{"compound": "O=C(Nc1ccc(-c2cnc(-c3ccc(NC(=O)[C@@H]4CCCN4C(=O)C(c4ccccc4)n4c(=O)[nH]c5ccccc54)cc3)o2)cc1)[C@@H]1CCCN1C(=O)C(c1ccccc1)n1c(=O)[nH]c2ccccc21", "note": "(stereo partly drawn) [JR-11, (2S,2′S)-N,N′-(2,5-oxazolediyldi-4,1-phenylene)bis[1-[(2,3-dihydro-2-oxo-1H-benzimidazol-1-yl)phenylacetyl]-2-pyrrolidinecarboxamide]]", "values": [{"measurement": "pEC50", "setting": "[3]", "result": "6.00 to 7.00"}]}
{"compound": "O=C(Nc1ccc(-c2ccc(-c3ccc(NC(=O)[C@@H]4CCCN4C(=O)Cc4ccccc4)cc3)s2)cc1)[C@@H]1CCCN1C(=O)Cc1ccccc1", "note": "[OL-22, (2S,2′S)-N,N′-(2,5-thienediyldi-4,1-phenylene)bis(1-(phenylacetyl)-2-pyrrolidinecarboxamide)]", "values": [{"measurement": "pEC50", "setting": "[1]", "result": "7.00 to 8.34"}]}
{"compound": "CC(=O)N1CCC[C@H]1C(=O)Nc1ccc(-c2nc(-c3ccc(NC(=O)C4CC(=O)N(CCc5cccs5)C4)cc3)cs2)cc1", "note": "(stereo partly drawn) [Example D-46, (2S)-1-acetyl-N-[4-[4-[4-[[[5-oxo-1-[2-(2-thienyl)ethyl]-3-pyrrolidinyl]carbonyl]amino]phenyl]-2-thiazolyl]phenyl]-2-pyrrolidinecarboxamide]", "values": [{"measurement": "pEC50", "setting": "[1]", "result": "5.00 to 6.00"}]}
{"compound": "CC(C)(C)OC(=O)N1CCCC1(Cc1ccccc1)C(=O)N1CCC[C@H]1C(=O)Nc1ccc(-c2cnc(-c3ccc(NC(=O)[C@@H]4CCCN4C(=O)C4(Cc5ccccc5)CCCN4C(=O)OC(C)(C)C)cc3)o2)cc1", "note": "(stereo partly drawn) [Example D-33, di-tert-butyl 2,2′-(1,3-oxazole-2,5-diylbis(4,1-phenylenecarbamoyl(2S)-2,1-pyrrolidinediylcarbonyl))bis(2-benzyl-1-pyrrolidinecarboxylate)]", "values": [{"measurement": "pEC50", "setting": "class symbol, read-out: EC50 Range against HCV 1b", "result": "5.00 to 6.00"}]}
{"compound": "O=C(Nc1ccc(-c2cnc(-c3ccc(NC(=O)[C@@H]4C[C@@H](O)CN4C(=O)C4CCCCC4)cc3)o2)cc1)[C@@H]1C[C@@H](O)CN1C(=O)C1CCCCC1", "note": "[XY-48, (2S,4R,2′S,4′R)-N,N′-(1,3-oxazole-2,5-diyldi-4,1-phenylene)bis(1-(cyclohexylcarbonyl)-4-hydroxy-2-pyrrolidinecarboxamide)]", "values": [{"measurement": "pEC50", "setting": "[3]", "result": "5.00 to 6.00"}]}
{"compound": "C[C@H](NC(=O)[C@H]1CCCO1)C(=O)Nc1ccc(-c2nnc(-c3ccc(NC(=O)[C@H](C)NC(=O)[C@H]4CCCO4)cc3)o2)cc1", "note": "[RK-35, (2R,2′R)-N,N′-(1,3,4-oxadiazole-2,5-diylbis(4,1-phenyleneimino((2S)-1-oxo-1,2-propanediyl)))ditetrahydro-2-furancarboxamide]", "values": [{"measurement": "pEC50", "setting": "class symbols, read-out: EC50 Range against HCV 1b", "result": "5.00 to 6.00"}]}
